Experimental data reported in PMC12951562, “SH2scan: Mapping SH2 Domain-Ligand Binding Selectivity for Inhibitors and Degraders” (Journal of Medicinal Chemistry, 2026).
Where “and” joins values, the source holds several entries; their conditions need not be identical. Equal values may be shown once. Read-outs that look alike come from different tables or passages of the source. Non-standard residues stand in square brackets, D forms with d. Residues, ends and D or L forms follow the SMILES beside them. *: point of attachment. pY = N[C@@H](Cc1ccc(OP(=O)(O)O)cc1)C(=O)O; Caffeoyl = O=C(/C=C/c1ccc(O)c(O)c1)*

Tests used:
Experiment in all cases: biochemical
Assay type in all cases: binding
YES = biological target: T1, YES (Homo sapiens, UniProt P07947); settings: for remaining activity at 10 µM: read-out: percent of DMSO vehicle control
T1 construct: the DNA-tagged SH2 domain concentrations used in this study were <0.1 nM; made in house; host or cells: HEK293 (transient transfection; unpurified cell extract)

SLAP2 = biological target: T2, SLAP2 (Homo sapiens, UniProt Q9H6Q3); settings: for remaining activity at 10 µM: read-out: percent of DMSO vehicle control
T2 construct: made in house; host or cells: HEK293 (transient transfection), unpurified extract
T2 sequence (Q9H6Q3 1-261): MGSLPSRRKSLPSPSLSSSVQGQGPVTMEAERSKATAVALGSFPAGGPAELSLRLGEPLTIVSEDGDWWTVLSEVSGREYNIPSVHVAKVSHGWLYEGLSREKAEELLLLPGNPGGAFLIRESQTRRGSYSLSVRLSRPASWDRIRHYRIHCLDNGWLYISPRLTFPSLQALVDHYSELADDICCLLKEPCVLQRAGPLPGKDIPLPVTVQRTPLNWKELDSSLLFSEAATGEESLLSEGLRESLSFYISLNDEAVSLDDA

SRMS = biological target: T3, SRMS (Homo sapiens, UniProt Q9H3Y6); settings: for remaining activity at 10 µM: read-out: percent of DMSO vehicle control
T3 construct: made in house; host or cells: HEK293 (transient transfection), unpurified extract

STAT2 = biological target: T4, STAT2 (Homo sapiens, UniProt P52630)
T4 construct: made in house; host or cells: HEK293 (transient transfection), unpurified extract

SH2D1B = biological target: T5, SH2D1B (Homo sapiens, UniProt O14796); settings: for remaining activity at 10 µM: read-out: percent of DMSO vehicle control
T5 construct: made in house; host or cells: HEK293 (transient transfection), unpurified extract
T5 sequence (O14796 1-132): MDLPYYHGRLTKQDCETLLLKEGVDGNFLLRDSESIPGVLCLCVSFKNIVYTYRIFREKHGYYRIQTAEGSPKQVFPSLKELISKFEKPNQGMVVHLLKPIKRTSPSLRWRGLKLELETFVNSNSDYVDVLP

NCK2 = biological target: T6, NCK2 (Homo sapiens, UniProt O43639); settings: for remaining activity at 10 µM: read-out: percent of DMSO vehicle control
T6 construct: the DNA-tagged SH2 domain concentrations used in this study were <0.1 nM; made in house; host or cells: HEK293 (transient transfection, unpurified extract)
T6 sequence (O43639 285-380 limits assumed): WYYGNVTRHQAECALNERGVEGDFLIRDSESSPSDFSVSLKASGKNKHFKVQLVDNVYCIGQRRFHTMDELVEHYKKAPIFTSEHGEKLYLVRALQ

NCK1 = biological target: T7, NCK1 (Homo sapiens, UniProt P16333); settings: for remaining activity at 10 µM: read-out: percent of DMSO vehicle control
T7 construct: the DNA-tagged SH2 domain concentrations used in this study were <0.1 nM; made in house; host or cells: HEK293 (transient transfection, unpurified extract)

PTPN6(SH2dom.N-term.) = biological target: T8, PTPN6(SH2dom.N-term.) (Homo sapiens, UniProt P29350); settings: for remaining activity at 10 µM: read-out: percent of DMSO vehicle control
T8 construct: SH2dom.N-term. denotes SH2 domain closest to N-terminus of protein; made in house; host or cells: HEK293 (transient transfection, unpurified extract)
T8 sequence (P29350 4-100 limits assumed): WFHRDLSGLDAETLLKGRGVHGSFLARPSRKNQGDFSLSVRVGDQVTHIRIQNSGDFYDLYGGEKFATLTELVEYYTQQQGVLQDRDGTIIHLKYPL

SLP76 = biological target: T9, SLP76 (Homo sapiens, UniProt Q13094); settings: for remaining activity at 10 µM: read-out: percent of DMSO vehicle control
T9 construct: made in house; host or cells: HEK293 (transient transfection), unpurified extract
T9 sequence (Q13094 1-533): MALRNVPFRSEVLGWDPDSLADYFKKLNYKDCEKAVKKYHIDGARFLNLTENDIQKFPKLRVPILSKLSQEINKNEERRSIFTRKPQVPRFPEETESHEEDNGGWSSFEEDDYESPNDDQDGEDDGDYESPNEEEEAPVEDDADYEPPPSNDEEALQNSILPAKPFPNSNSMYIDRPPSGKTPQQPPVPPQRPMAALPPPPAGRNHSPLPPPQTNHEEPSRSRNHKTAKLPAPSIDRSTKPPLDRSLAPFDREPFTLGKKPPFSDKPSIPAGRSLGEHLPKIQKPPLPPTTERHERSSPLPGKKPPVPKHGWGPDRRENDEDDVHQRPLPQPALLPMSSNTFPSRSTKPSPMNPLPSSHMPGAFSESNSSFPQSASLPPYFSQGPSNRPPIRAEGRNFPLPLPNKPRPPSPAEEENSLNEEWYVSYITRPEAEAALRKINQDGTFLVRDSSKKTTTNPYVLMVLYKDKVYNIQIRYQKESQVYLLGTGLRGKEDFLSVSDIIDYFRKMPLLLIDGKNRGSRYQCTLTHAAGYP

PTPN6(SH2dom.C-term.) = biological target: T10, PTPN6(SH2dom.C-term.) (Homo sapiens, UniProt P29350); settings: for remaining activity at 10 µM: read-out: percent of DMSO vehicle control
T10 construct: SH2dom.C-term. denotes SH2 domain closest to C-terminus of protein; made in house; host or cells: HEK293 (transient transfection, unpurified extract)
T10 sequence (P29350 110-213 limits assumed): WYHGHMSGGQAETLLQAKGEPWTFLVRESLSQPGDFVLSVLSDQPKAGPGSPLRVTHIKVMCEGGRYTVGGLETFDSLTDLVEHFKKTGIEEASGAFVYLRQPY

PIK3R2(SH2dom.C-term.) = biological target: T11, PIK3R2(SH2dom.C-term.) (Homo sapiens, UniProt O00459); settings: for KD: dose-response; for remaining activity at 10 µM: read-out: percent of DMSO vehicle control
T11 construct: SH2dom.C-term. denotes SH2 domain closest to C-terminus of protein; made in house; host or cells: HEK293 (transient transfection, unpurified extract)
T11 sequence (O00459 622-716 limits assumed): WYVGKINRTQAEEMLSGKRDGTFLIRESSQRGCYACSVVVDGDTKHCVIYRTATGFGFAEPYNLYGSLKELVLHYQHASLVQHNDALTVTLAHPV

STAP1 = biological target: T12, STAP1 (Homo sapiens, UniProt Q9ULZ2); settings: for remaining activity at 10 µM: read-out: percent of DMSO vehicle control
T12 construct: made in house; host or cells: HEK293 (transient transfection), unpurified extract
T12 sequence (Q9ULZ2 1-295): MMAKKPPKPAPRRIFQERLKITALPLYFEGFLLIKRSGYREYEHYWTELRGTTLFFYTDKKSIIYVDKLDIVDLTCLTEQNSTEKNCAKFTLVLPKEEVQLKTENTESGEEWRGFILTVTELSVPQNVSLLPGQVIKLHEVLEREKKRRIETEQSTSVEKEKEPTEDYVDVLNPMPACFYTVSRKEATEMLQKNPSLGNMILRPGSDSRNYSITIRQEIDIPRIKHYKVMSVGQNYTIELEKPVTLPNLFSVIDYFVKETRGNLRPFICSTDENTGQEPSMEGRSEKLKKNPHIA

[1] = read-out: percent of DMSO vehicle control

T1 sequence (P07947 158-255 limits assumed): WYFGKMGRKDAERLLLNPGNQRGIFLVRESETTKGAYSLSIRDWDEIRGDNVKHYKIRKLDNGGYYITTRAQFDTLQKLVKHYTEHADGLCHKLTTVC
T3 sequence (Q9H3Y6 whole entry): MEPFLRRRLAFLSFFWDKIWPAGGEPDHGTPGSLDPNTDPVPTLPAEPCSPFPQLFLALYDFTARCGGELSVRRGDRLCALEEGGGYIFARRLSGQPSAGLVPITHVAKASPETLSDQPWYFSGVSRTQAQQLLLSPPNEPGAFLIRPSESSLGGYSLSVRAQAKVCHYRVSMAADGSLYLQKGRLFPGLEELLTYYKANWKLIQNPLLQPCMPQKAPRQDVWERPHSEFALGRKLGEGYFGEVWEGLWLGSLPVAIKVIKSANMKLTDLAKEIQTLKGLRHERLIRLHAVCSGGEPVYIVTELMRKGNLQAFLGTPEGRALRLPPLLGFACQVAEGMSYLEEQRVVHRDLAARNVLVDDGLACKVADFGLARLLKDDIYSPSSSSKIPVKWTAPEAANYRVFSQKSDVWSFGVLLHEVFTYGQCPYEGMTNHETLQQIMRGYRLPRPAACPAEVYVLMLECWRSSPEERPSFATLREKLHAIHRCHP
T4 sequence (P52630 whole entry): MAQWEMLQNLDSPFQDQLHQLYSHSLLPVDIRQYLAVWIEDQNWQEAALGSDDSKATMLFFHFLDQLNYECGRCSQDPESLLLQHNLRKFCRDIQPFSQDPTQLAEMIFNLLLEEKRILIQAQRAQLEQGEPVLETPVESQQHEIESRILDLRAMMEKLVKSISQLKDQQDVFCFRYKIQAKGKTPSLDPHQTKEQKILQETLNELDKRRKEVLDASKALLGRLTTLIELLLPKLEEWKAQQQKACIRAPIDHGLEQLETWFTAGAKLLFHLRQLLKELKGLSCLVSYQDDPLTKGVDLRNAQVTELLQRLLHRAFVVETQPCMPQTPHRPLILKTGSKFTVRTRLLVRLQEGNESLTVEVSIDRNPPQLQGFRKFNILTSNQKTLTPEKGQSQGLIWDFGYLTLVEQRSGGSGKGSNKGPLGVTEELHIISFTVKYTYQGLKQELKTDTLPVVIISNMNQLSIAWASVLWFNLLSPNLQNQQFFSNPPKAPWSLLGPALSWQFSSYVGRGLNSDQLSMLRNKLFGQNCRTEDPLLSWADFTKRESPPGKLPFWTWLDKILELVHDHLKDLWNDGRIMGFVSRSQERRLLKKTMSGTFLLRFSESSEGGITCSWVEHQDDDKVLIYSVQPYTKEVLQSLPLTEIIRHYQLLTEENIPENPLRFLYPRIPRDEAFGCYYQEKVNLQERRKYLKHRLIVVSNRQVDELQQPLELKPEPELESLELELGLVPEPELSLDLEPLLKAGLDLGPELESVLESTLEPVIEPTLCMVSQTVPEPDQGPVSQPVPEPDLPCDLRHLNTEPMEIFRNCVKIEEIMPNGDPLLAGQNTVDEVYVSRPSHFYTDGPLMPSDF

SMILES: CC[C@H](C)[C@H](NC(=O)[C@H](CCC(=O)O)NC(=O)[C@H](CCC(=O)O)NC(=O)[C@H](Cc1ccc(OP(=O)(O)O)cc1)NC(C)=O)C(=O)N[C@@H](CCC(=O)O)C(N)=O [Ac-pYEEIE-NH2] (Ac-[pY]EEIE-NH2)
- Kd (YES): 3800 nM
- percent of DMSO vehicle control (YES; primary screen, 10 μM): 14.2±1.5%
- percent of DMSO vehicle control (SLAP2; primary screen, 10 μM): 202.8%
- percent of DMSO vehicle control (SRMS; primary screen, 10 μM): 62.7±1.1%
- percent of DMSO vehicle control (STAT2; primary screen, 10 μM): 53.6±1.3%
- percent of DMSO vehicle control (SH2D1B; primary screen, 10 μM): 47.1±1.3%
- percent of DMSO vehicle control (NCK2; primary screen, 10 μM): 74.9%
- percent of DMSO vehicle control (NCK1; primary screen, 10 μM): 90.1%
- percent of DMSO vehicle control (PTPN6(SH2dom.N-term.); primary screen, 10 μM): 163.9%
- percent of DMSO vehicle control (SLP76; primary screen, 10 μM): 42.0±2.1%
- percent of DMSO vehicle control (PTPN6(SH2dom.C-term.); primary screen, 10 μM): 110.0%
- percent of DMSO vehicle control (PIK3R2(SH2dom.C-term.); primary screen, 10 μM): 49.5±7.1%
- percent of DMSO vehicle control (STAP1; primary screen, 10 μM): 101.0%

SMILES: CC(=O)N[C@@H](Cc1ccc(CP(=O)(O)O)cc1)C(=O)NC1(C(=O)N[C@@H](CC(N)=O)C(=O)NCCCc2c(O)ccc3ccccc23)CCCCC1 [CGP78850]
- remaining activity at 10 µM (YES): 66.7 ± 8.3%
- remaining activity at 10 µM (SLAP2): 91.4 ± 15.3%
- remaining activity at 10 µM (SRMS): 65.3 ± 5.9%
- KD (STAT2; dose-response): No Hit
- percent of DMSO vehicle control at 10 µM (STAT2; [1]): 27.3%
- remaining activity at 10 µM (SH2D1B): 77.3 ± 6.6%
- remaining activity at 10 µM (NCK2): 111 ± 23.7%
- remaining activity at 10 µM (NCK1): 104 ± 4.8%
- remaining activity at 10 µM (PTPN6(SH2dom.N-term.)): 112 ± 9.8%
- remaining activity at 10 µM (SLP76): 44.1 ± 5.3%
- remaining activity at 10 µM (PTPN6(SH2dom.C-term.)): 130.9 ± 0.8%
- KD (PIK3R2(SH2dom.C-term.)): No Hit
- remaining activity at 10 µM (PIK3R2(SH2dom.C-term.)): 0.4 ± 0.4%
- remaining activity at 10 µM (STAP1): 113 ± 2.6%

SMILES: CC[C@H](C)[C@H](NC(=O)[C@H](CCC(=O)O)NC(=O)[C@H](CCC(=O)O)NC(=O)[C@H](Cc1ccc(OP(=O)(O)O)cc1)NC(=O)/C=C/c1ccc(O)c(O)c1)C(=O)N[C@@H](CCC(=O)O)C(=O)O [Caffeic acid-pYEEIE] (Caffeoyl-[pY]EEIE-OH)
- Kd (YES): 1 ± 0.47 nM
- remaining activity at 10 µM (YES): 0%
- Kd (SLAP2; KD, dose-response): 310 nM and 314 nM
- remaining activity at 10 µM (SLAP2): 5.3 ± 3.8%
- Kd (SRMS): 1.2 ± 0.73 nM
- remaining activity at 10 µM (SRMS): 0.1%
- Kd (STAT2): 3.6 ± 0.18 nM
- percent of DMSO vehicle control at 10 µM (STAT2; [1]): 0%
- Kd (SH2D1B): 65 ± 14 nM
- remaining activity at 10 µM (SH2D1B): 12.9 ± 2.3%
- Kd (NCK2): 210 ± 59 nM
- remaining activity at 10 µM (NCK2): 2.8 ± 3.1%
- Kd (NCK1): 97 ± 71 nM
- remaining activity at 10 µM (NCK1): 0.8 ± 0.1%
- remaining activity at 10 µM (PTPN6(SH2dom.N-term.)): 118 ± 19.5%
- remaining activity at 10 µM (SLP76): 99.6 ± 4.7%
- remaining activity at 10 µM (PTPN6(SH2dom.C-term.)): 114 ± 11%
- KD (PIK3R2(SH2dom.C-term.)): No Hit
- remaining activity at 10 µM (PIK3R2(SH2dom.C-term.)): 0.3 ± 0.9%
- remaining activity at 10 µM (STAP1): 77.9 ± 1%

SMILES: O=C(CCl)Nc1cccc(CNC(=O)[C@H](Cc2ccc(OP(=O)(O)O)cc2)NC(=O)Cc2ccc(F)cc2)c1 [MN551]
- remaining activity at 10 µM (YES; primary screen, 10 μM): 46.5 ± 2.1%
- remaining activity at 10 µM (SLAP2; primary screen, 10 μM): 81.6 ± 2.1%
- KD (SRMS; dose-response): No Hit
- remaining activity at 10 µM (SRMS; primary screen, 10 μM): 1.3 ± 0.6%
- remaining activity at 10 µM (STAT2; primary screen, 10 μM, read-out: percent of DMSO vehicle control): 217%
- remaining activity at 10 µM (SH2D1B; primary screen, 10 μM): 63.2 ± 6.6%
- remaining activity at 10 µM (NCK2; primary screen, 10 μM): 81.5 ± 3%
- remaining activity at 10 µM (NCK1; primary screen, 10 μM): 67.4 ± 5.3%
- remaining activity at 10 µM (PTPN6(SH2dom.N-term.); primary screen, 10 μM): 102%
- remaining activity at 10 µM (SLP76; primary screen, 10 μM): 116%
- remaining activity at 10 µM (PTPN6(SH2dom.C-term.); primary screen, 10 μM): 147%
- KD (PIK3R2(SH2dom.C-term.)): No Hit
- remaining activity at 10 µM (PIK3R2(SH2dom.C-term.); primary screen, 10 μM): 30.3%
- remaining activity at 10 µM (STAP1; primary screen, 10 μM): 84.3 ± 2.8%
